# Where two headings read alike, the source gives them in different places. Bridge positions count the residues as written; N and C are the ends. Square brackets hold non-standard residues; d marks the D form. Peptide text beside a SMILES is read from it. * marks the point of attachment. X1 = CCCCCCCCCCCCCCCCCOCCOCCOCCOCCOCCOCCOCCOCCOCCOCCOCCOCCOCCC(=O)*
# How the values were obtained:
# CD59 = target: T1, CD59 (Homo sapiens, UniProt P13987); test: SPR (Biacore S200) binding to immobilised biotinylated CD59
# T1 construct: Recombinant soluble human CD59 with an additional C-terminal cysteine residue
# T1 sequence (P13987 26-102 limits assumed): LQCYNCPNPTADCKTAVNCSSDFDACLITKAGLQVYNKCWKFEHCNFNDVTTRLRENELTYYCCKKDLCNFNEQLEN
# Source text: To identify which of these peptides bound CD59 most tightly, we used a Biacore S200 surface plasmon resonance (SPR) platform to investigate CD59 affinity (Figure 2b), using a known protein binding partner of CD59 (rILYd4) as a benchmark. Four 13‐mer macrocyclic peptides and one 14‐mer macrocyclic peptide were identified with a dissociation constant (K D) lower than that of rILYd4. Considering their fourfold lower molecular weight, these peptides bind with up to 19‐fold greater efficiency compared to rILYd4 (Figure 2b).
# Equipment: SPR analysis was performed on a Cytiva Biacore S200. All buffers were prepared using ultra-pure water from a Millipore Elix Q-Gard purification system. Solutions and buffers were filtered with a 0.22 μm filter and degassed prior to use. The assays were performed on Series S streptavidin (SA) sensor chip (Cytiva). PBS-P+ buffer 10X (0.2 M phosphate buffer with 27 mM KCl, 1.37 M NaCl and 0.5% Surfactant P20 (Tween 20)) was used for the preparation of the assay running buffer (PBS-P+ 1X).
# Immobilisation of CD59-biotin: Biotinylated CD59 was immobilised on the surface of a SA chip by non-covalent capture (biotin streptavidin interaction) as per the manufacturer’s instructions. The system was initially primed with running buffer and normalised using BIAnormalizing solution (70% (w/w) glycerol) (Cytiva). Before immobilising the protein, the surface was conditioned with three consecutive one-minute injections of 1 M NaCl in 50 mM NaOH. Biotinylated CD59 (0.5 µg/mL in running buffer) was flowed over the protein (active) channel for different contact times to achieve different immobilisation levels (600–1200 RU). After each protein injection, the needle and injection loop were washed using 50% isopropanol in 1 M NaCl and 50 mM NaOH. A reference channel was prepared by similar treatment; however, running buffer alone rather than CD59-biotin in running buffer was flowed over the chip the same way.
# Interaction analysis: Multicycle kinetic and affinity approach was used for the analysis of peptides interactions with CD59. Two-fold serial dilutions of each peptide were prepared in running buffer and were flowed over both the ligand and reference channel using a flow rate (30 μL/min) at 25 °C. A zero concentration was added to each analyte series and three cycles of buffer were run between analytes to restore the baseline. The obtained sensorgrams were analysed using the embedded Biacore S200 Evaluation software. The data were normalised by subtracting RU values of the reference channel and zero concentration of the analyte series. Kinetic rate constants (kon and koff) were determined by fitting the normalised data using the built-in Kinetic analysis model (non-linear regression with a 1:1 Langmuir binding model), KD values were then calculated from the two rate constants ([…]). The KD values were determined again by fitting the normalised data using the built-in Affinity analysis model (1:1 Langmuir binding model).
# [1] = test system: antibody-sensitized human erythrocytes; test: Enhancement of CDC lysis assay (complement dependent cytotoxicity) in antibody-sensitized erythrocytes; format: cell-based
# Method: Figure 5 CP‐06 and optimized analogues control CD59 activity in cellular assays. a) ILY lysis assay. SK‐BR‐3 cells were treated with CP‐06 (n = 4) or CP‐06[W3A] (n = 2), then with Sytox green dye and ILY ([…]). The plate was imaged immediately with the IncuCyte S3 Live Cell Analysis System and then every hour up to 14 h. The linear phase of lysis was taken from each well, and linear regression was performed to extract individual slope values, which were then normalized to maximum lysis rate (Sytox and ILY) vs. 0% lysis (Sytox only) within each plate. […] Human erythrocytes were sensitized with 1% w/v anti‐human erythrocyte Ab with 5% v/v human serum in the presence of a serial dilution of CP‐06C18 (black bars) or CP‐06scrmb‐C18 (red bars) Percent lysis enhancement was calculated by normalization to 0% enhancement (buffer well) and plotted as the mean of three biological replicates ± SEM. […]
# Enhancement of CDC lysis assay: A 50% (v/v) erythrocyte stock suspension was prepared as described above. […] The following controls were included: (1) a positive control which contained Tween-20 (Cf = 1%), (2) a negative control well that contained PBS, and (3) a vehicle only well that contained PBS without erythrocytes to subtract the absorbance of the vehicle. […]
# [2] = Ala scan of CP-06, SPR, n = 1, read-out: KD
# [3] = Ala scan of CP-06, SPR, n = 1, read-out: PKD (converted)
smiles,measurement,setting,value
"CC(C)[C@@H]1NC(=O)[C@H](C)NC(=O)[C@H](CO)NC(=O)[C@H](CCCNC(=N)N)NC(=O)[C@H](CC(N)=O)NC(=O)CNC(=O)[C@H](Cc2c[nH]c3ccccc23)NC(=O)[C@H]([C@@H](C)O)NC(=O)[C@H](Cc2c[nH]c3ccccc23)NC(=O)[C@H](CO)NC(=O)[C@@H](Cc2ccc(O)cc2)NC(=O)CSC[C@@H](C(N)=O)NC(=O)CNC(=O)[C@H](CCCNC(=N)N)NC1=O [CP-06-S10A] (HELM PEPTIDE1{[O=C(C[*:3])[*:2]].[dY].S.W.T.W.G.N.R.S.A.V.R.G.C.[am]}$PEPTIDE1,PEPTIDE1,1:R3-15:R3$$$V2.0)",Kd,CD59; [2],12 nM
"CC(C)[C@@H]1NC(=O)[C@H](CO)NC(=O)[C@H](CO)NC(=O)[C@H](CCCNC(=N)N)NC(=O)[C@H](CC(N)=O)NC(=O)CNC(=O)[C@H](Cc2c[nH]c3ccccc23)NC(=O)[C@H](C)NC(=O)[C@H](Cc2c[nH]c3ccccc23)NC(=O)[C@H](CO)NC(=O)[C@@H](Cc2ccc(O)cc2)NC(=O)CSC[C@@H](C(N)=O)NC(=O)CNC(=O)[C@H](CCCNC(=N)N)NC1=O [CP-06-T4A] (HELM PEPTIDE1{[O=C(C[*:3])[*:2]].[dY].S.W.A.W.G.N.R.S.S.V.R.G.C.[am]}$PEPTIDE1,PEPTIDE1,1:R3-15:R3$$$V2.0)",Kd,CD59; [2],18 nM
"C[C@@H]1NC(=O)[C@H](CO)NC(=O)[C@H](CO)NC(=O)[C@H](CCCNC(=N)N)NC(=O)[C@H](CC(N)=O)NC(=O)CNC(=O)[C@H](Cc2c[nH]c3ccccc23)NC(=O)[C@H]([C@@H](C)O)NC(=O)[C@H](Cc2c[nH]c3ccccc23)NC(=O)[C@H](CO)NC(=O)[C@@H](Cc2ccc(O)cc2)NC(=O)CSC[C@@H](C(N)=O)NC(=O)CNC(=O)[C@H](CCCNC(=N)N)NC1=O [CP-06-V11A] (HELM PEPTIDE1{[O=C(C[*:3])[*:2]].[dY].S.W.T.W.G.N.R.S.S.A.R.G.C.[am]}$PEPTIDE1,PEPTIDE1,1:R3-15:R3$$$V2.0)",Kd,CD59; [3],30.2 nM
"CC(C)[C@@H]1NC(=O)[C@H](CO)NC(=O)[C@H](CO)NC(=O)[C@H](CCCNC(=N)N)NC(=O)[C@H](CC(N)=O)NC(=O)CNC(=O)[C@H](Cc2c[nH]c3ccccc23)NC(=O)[C@H]([C@@H](C)O)NC(=O)[C@H](C)NC(=O)[C@H](CO)NC(=O)[C@@H](Cc2ccc(O)cc2)NC(=O)CSC[C@@H](C(N)=O)NC(=O)CNC(=O)[C@H](CCCNC(=N)N)NC1=O [CP-06-W3A] (HELM PEPTIDE1{[O=C(C[*:3])[*:2]].[dY].S.A.T.W.G.N.R.S.S.V.R.G.C.[am]}$PEPTIDE1,PEPTIDE1,1:R3-15:R3$$$V2.0)",Kd,CD59; [2],1200 nM
"CC(C)[C@@H]1NC(=O)[C@H](CO)NC(=O)[C@H](CO)NC(=O)[C@H](CCCNC(=N)N)NC(=O)[C@H](CC(N)=O)NC(=O)CNC(=O)[C@H](C)NC(=O)[C@H]([C@@H](C)O)NC(=O)[C@H](Cc2c[nH]c3ccccc23)NC(=O)[C@H](CO)NC(=O)[C@@H](Cc2ccc(O)cc2)NC(=O)CSC[C@@H](C(N)=O)NC(=O)CNC(=O)[C@H](CCCNC(=N)N)NC1=O [CP-06-W5A] (HELM PEPTIDE1{[O=C(C[*:3])[*:2]].[dY].S.W.T.A.G.N.R.S.S.V.R.G.C.[am]}$PEPTIDE1,PEPTIDE1,1:R3-15:R3$$$V2.0)",Kd,CD59; [2],207 nM
"CC(C)[C@@H]1NC(=O)[C@H](CO)NC(=O)[C@H](CO)NC(=O)[C@H](CCCNC(=N)N)NC(=O)[C@H](CC(N)=O)NC(=O)CNC(=O)[C@H](Cc2c[nH]c3ccccc23)NC(=O)[C@H]([C@@H](C)O)NC(=O)[C@H](Cc2c[nH]c3ccccc23)NC(=O)[C@H](CO)NC(=O)[C@H](C)NC(=O)CSC[C@@H](C(N)=O)NC(=O)CNC(=O)[C@H](CCCNC(=N)N)NC1=O [CP-06-d-Y1A] (HELM PEPTIDE1{[O=C(C[*:3])[*:2]].A.S.W.T.W.G.N.R.S.S.V.R.G.C.[am]}$PEPTIDE1,PEPTIDE1,1:R3-15:R3$$$V2.0)",Kd,CD59; [2],668 nM
same,Kd,CD59; [3],676 nM
same,fold decrease in KD (fold loss in binding affinity),"CD59; Ala scan vs CP-06, SPR, n = 1, Figure 3b and text",~60 fold
same,Fold Change,"CD59; fold decrease in KD vs CP-06, Ala scan",61
CCCCCCCCCCCCCCCCCOCCOCCOCCOCCOCCOCCOCCOCCOCCOCCOCCOCCOCCC(=O)NCCCC[C@H](NC(=O)CNC(=O)[C@@H]1CSCC(=O)N[C@H](Cc2ccc(O)cc2)C(=O)N[C@@H](CO)C(=O)N[C@@H](Cc2c[nH]c3ccccc23)C(=O)N[C@@H]([C@@H](C)O)C(=O)N[C@@H](Cc2c[nH]c3ccccc23)C(=O)NCC(=O)N[C@@H](CC(N)=O)C(=O)N[C@@H](CCCNC(=N)N)C(=O)N[C@@H](CO)C(=O)N[C@@H](CO)C(=O)N[C@@H](C(C)C)C(=O)N[C@@H](CCCNC(=N)N)C(=O)NCC(=O)N1)C(=O)NCC(N)=O [CP-06C18] ({CH2CO}-[dY]SWTWGNRSSVRGCGK(X1)G-NH2; thioether N-14),enhancement of mAb-mediated CDC (in words),"[1]; anti-RBC antibody, 5% human serum",enhanced mAb‐mediated CDC in a dose‐dependent manner
same,lysis in the absence of anti-RBC (in words),"[1]; no anti-RBC antibody, Figure S4",Neither peptide caused lysis above background
"C[C@@H]1NC(=O)[C@H](CO)NC(=O)[C@@H](Cc2ccc(O)cc2)NC(=O)CSC[C@@H](C(N)=O)NC(=O)[C@H](Cc2ccc(O)cc2)NC(=O)[C@H](Cc2ccc(O)cc2)NC(=O)[C@H](CCC(N)=O)NC(=O)[C@H]([C@@H](C)O)NC(=O)[C@H](CCC(N)=O)NC(=O)[C@H](CCCNC(=N)N)NC(=O)[C@H](CC(N)=O)NC(=O)CNC(=O)[C@H](Cc2c[nH]c3ccccc23)NC1=O [CP-13] (HELM PEPTIDE1{[O=C(C[*:3])[*:2]].[dY].S.A.W.G.N.R.Q.T.Q.Y.Y.C.[am]}$PEPTIDE1,PEPTIDE1,1:R3-14:R3$$$V2.0)",Kd,"CD59; SPR, immobilized CD59, average of three technical replicates ± SEM, read-out: KD (nM) ± SEM",10.8 ± 0.7 nM
